Measured values from PubChem BioAssay (NCI).
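GI50: concentration for 50% inhibition of growth. TGI: total growth inhibition.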

Assays:
Assay in all cases: DTP human tumour cell line panel, 384-well format
MALME-3M melanoma = test system: MALME-3M melanoma
MDA-MB-435 melanoma = test system: MDA-MB-435 melanoma
TK-10 renal = test system: TK-10 renal
SK-MEL-5 melanoma = test system: SK-MEL-5 melanoma
NCI-H460 NSCLC = test system: NCI-H460 NSCLC
RXF 393 renal = test system: RXF 393 renal
MDA-MB-231 breast = test system: MDA-MB-231 breast
SW-620 colon = test system: SW-620 colon
HL-60(TB) leukemia = test system: HL-60(TB) leukemia
A549 NSCLC = test system: A549 NSCLC
COLO 205 colon = test system: COLO 205 colon
MDA-MB-468 breast = test system: MDA-MB-468 breast
NCI-H23 lung = test system: NCI-H23 lung
MOLT-4 leukemia = test system: MOLT-4 leukemia
OVCAR-8 ovarian = test system: OVCAR-8 ovarian
SNB-19 CNS = test system: SNB-19 CNS
RPMI-8226 leukemia = test system: RPMI-8226 leukemia
LOX IMVI melanoma = test system: LOX IMVI melanoma
HCT-116 colon = test system: HCT-116 colon
M14 melanoma = test system: M14 melanoma
UACC-62 melanoma = test system: UACC-62 melanoma
SK-MEL-28 melanoma = test system: SK-MEL-28 melanoma
HT29 colon = test system: HT29 colon
A498 renal = test system: A498 renal
786-0 renal = test system: 786-0 renal
EKVX NSCLC = test system: EKVX NSCLC
U251 glioblastoma = test system: U251 glioblastoma
SK-MEL-2 melanoma = test system: SK-MEL-2 melanoma
CAKI-1 renal = test system: CAKI-1 renal
HCT-15 colon = test system: HCT-15 colon
SK-OV-3 ovarian = test system: SK-OV-3 ovarian
UO-31 renal = test system: UO-31 renal
BT-549 breast = test system: BT-549 breast
HS 578T breast = test system: HS 578T breast
SF-268 CNS = test system: SF-268 CNS
SF-539 CNS = test system: SF-539 CNS
MCF7 breast = test system: MCF7 breast
HOP-62 NSCLC = test system: HOP-62 NSCLC
SF-295 CNS = test system: SF-295 CNS
SN12C renal = test system: SN12C renal
NCI/ADR-RES ovarian = test system: NCI/ADR-RES ovarian
ACHN renal = test system: ACHN renal
SR leukemia = test system: SR leukemia
T-47D breast = test system: T-47D breast
CCRF-CEM leukemia = test system: CCRF-CEM leukemia
HCC-2998 colon = test system: HCC-2998 colon
UACC-257 melanoma = test system: UACC-257 melanoma

## Cc1nc(NC(=O)N2CCC[C@H]2C(N)=O)sc1-c1ccnc(C(C)(C)C(F)(F)F)c1
MALME-3M melanoma
  GI50: 6.66 µM
  TGI: 29.4 µM
MDA-MB-435 melanoma
  GI50: 24.6 µM
  TGI: > 80.3 µM
TK-10 renal
  GI50: 4.71 µM
  TGI: 28.5 µM
SK-MEL-5 melanoma
  GI50: 6.54 µM
  TGI: 14.9 µM
NCI-H460 NSCLC
  GI50: 2.13 µM
  TGI: 43 µM
RXF 393 renal
  GI50: 5.57 µM
  TGI: 22.5 µM
MDA-MB-231 breast
  GI50: 13.5 µM
  TGI: 48.7 µM
SW-620 colon
  GI50: 8.53 µM
  TGI: 40.2 µM
HL-60(TB) leukemia
  GI50: 0.727 µM
  TGI: 9.24 µM
A549 NSCLC
  GI50: 6.07 µM
  TGI: 23.7 µM
COLO 205 colon
  GI50: 7.15 µM
  TGI: 43.4 µM
MDA-MB-468 breast
  GI50: 1260 nM
  TGI: 7.64 µM
NCI-H23 lung
  GI50: 12.1 µM
  TGI: 44.4 µM
MOLT-4 leukemia
  GI50: 0.857 µM
  TGI: 4.24 µM
OVCAR-8 ovarian
  GI50: 14.3 µM
  TGI: 88.7 µM
SNB-19 CNS
  GI50: 28.6 µM
  TGI: > 100 µM
RPMI-8226 leukemia
  GI50: 7.05 µM
  TGI: 21.7 µM
LOX IMVI melanoma
  GI50: 7.55 µM
  TGI: 28 µM
HCT-116 colon
  GI50: 7.62 µM
  TGI: 42.8 µM
M14 melanoma
  GI50: 15 µM
  TGI: > 74.2 µM
UACC-62 melanoma
  GI50: 10.2 µM
  TGI: 24 µM
SK-MEL-28 melanoma
  GI50: 7.87 µM
  TGI: > 83 µM
HT29 colon
  GI50: 1580 nM
  TGI: 33.4 µM
A498 renal
  GI50: 8.13 µM
  TGI: 37.7 µM
786-0 renal
  GI50: 17.4 µM
  TGI: 54.8 µM
EKVX NSCLC
  GI50: 5.55 µM
  TGI: 24.8 µM
U251 glioblastoma
  GI50: 10.3 µM
  TGI: 39.5 µM
SK-MEL-2 melanoma
  GI50: 12.4 µM
  TGI: 26.2 µM
CAKI-1 renal
  GI50: 7.1 µM
  TGI: 26.9 µM
HCT-15 colon
  GI50: 2.74 µM
  TGI: 27.8 µM
SK-OV-3 ovarian
  GI50: 725 nM
  TGI: 12.1 µM
UO-31 renal
  GI50: 8.46 µM
  TGI: 58.5 µM
BT-549 breast
  GI50: 5.81 µM
  TGI: 28.6 µM
HS 578T breast
  GI50: 3.7 µM
  TGI: 18.4 µM
SF-268 CNS
  GI50: 12.9 µM
  TGI: 61.2 µM
SF-539 CNS
  GI50: 12.5 µM
  TGI: 38.3 µM
MCF7 breast
  GI50: 205 nM
  TGI: 17.8 µM
HOP-62 NSCLC
  GI50: 18 µM
  TGI: > 94.3 µM
SF-295 CNS
  GI50: 9.16 µM
  TGI: 33.5 µM
SN12C renal
  GI50: 14.7 µM
  TGI: 80.1 µM
NCI/ADR-RES ovarian
  GI50: 16.5 µM
  TGI: 71.9 µM
ACHN renal
  GI50: 9.43 µM
  TGI: 48.7 µM
SR leukemia
  GI50: 3570 nM
  TGI: 15.6 µM
T-47D breast
  GI50: 0.0839 µM
  TGI: 0.592 µM
CCRF-CEM leukemia
  GI50: 3.51 µM
  TGI: 15.6 µM
HCC-2998 colon
  GI50: 6.67 µM
  TGI: 25 µM
UACC-257 melanoma
  GI50: 23 µM
  TGI: 70.3 µM

## CC(=O)N1CC(F)(F)c2c(Sc3ncc(N4CCC5(CC4)COC[C@H]5N)nc3N)cccc21
MALME-3M melanoma
  GI50: 8.55 µM
  TGI: 20.8 µM
MDA-MB-435 melanoma
  GI50: 29.1 µM
  TGI: 91.7 µM
TK-10 renal
  GI50: 4.9 µM
  TGI: 19.2 µM
SK-MEL-5 melanoma
  GI50: 15.7 µM
  TGI: 29.2 µM
NCI-H460 NSCLC
  GI50: 18.6 µM
  TGI: 34.6 µM
RXF 393 renal
  GI50: 2.22 µM
  TGI: 8.72 µM
MDA-MB-231 breast
  GI50: 15.3 µM
  TGI: 41.4 µM
SW-620 colon
  GI50: 11.5 µM
  TGI: 23.9 µM
HL-60(TB) leukemia
  GI50: 10 µM
  TGI: 21.6 µM
A549 NSCLC
  GI50: 14.1 µM
  TGI: 35.2 µM
COLO 205 colon
  GI50: 16.6 µM
  TGI: 32 µM
MDA-MB-468 breast
  GI50: 1520 nM
  TGI: 8.19 µM
NCI-H23 lung
  GI50: 2.06 µM
  TGI: 15.2 µM
MOLT-4 leukemia
  GI50: 14.1 µM
  TGI: 27.2 µM
OVCAR-8 ovarian
  GI50: 11.9 µM
  TGI: 30.8 µM
SNB-19 CNS
  GI50: 13.6 µM
  TGI: 41.7 µM
RPMI-8226 leukemia
  GI50: 3.87 µM
  TGI: 15.5 µM
LOX IMVI melanoma
  GI50: 12.4 µM
  TGI: 25 µM
HCT-116 colon
  GI50: 16.2 µM
  TGI: 30 µM
M14 melanoma
  GI50: 10.4 µM
  TGI: 22.4 µM
UACC-62 melanoma
  GI50: 12.5 µM
  TGI: 25.6 µM
SK-MEL-28 melanoma
  GI50: 13.1 µM
  TGI: 26.2 µM
HT29 colon
  GI50: 3750 nM
  TGI: 12.7 µM
A498 renal
  GI50: 2.75 µM
  TGI: 20.8 µM
786-0 renal
  GI50: 10.7 µM
  TGI: 23.5 µM
EKVX NSCLC
  GI50: 6.02 µM
  TGI: 43.1 µM
U251 glioblastoma
  GI50: 12.7 µM
  TGI: 26.6 µM
SK-MEL-2 melanoma
  GI50: 16.2 µM
  TGI: 30.3 µM
CAKI-1 renal
  GI50: 2.74 µM
  TGI: 21.1 µM
HCT-15 colon
  GI50: 16.9 µM
  TGI: 31.8 µM
SK-OV-3 ovarian
  GI50: 4820 nM
  TGI: 19.1 µM
UO-31 renal
  GI50: 6.39 µM
  TGI: 20.3 µM
BT-549 breast
  GI50: 4.68 µM
  TGI: 22.1 µM
HS 578T breast
  GI50: 13.9 µM
  TGI: 29.8 µM
SF-268 CNS
  GI50: 14.4 µM
  TGI: 48.7 µM
SF-539 CNS
  GI50: 8.31 µM
  TGI: 21.1 µM
MCF7 breast
  GI50: 45.3 nM
  TGI: 11.4 µM
HOP-62 NSCLC
  GI50: 13.7 µM
  TGI: 30.9 µM
SF-295 CNS
  GI50: 15.5 µM
  TGI: 31.2 µM
SN12C renal
  GI50: 11.2 µM
  TGI: 50.9 µM
NCI/ADR-RES ovarian
  GI50: 16.3 µM
  TGI: 56.8 µM
ACHN renal
  GI50: 6.61 µM
  TGI: 27.1 µM
SR leukemia
  GI50: 2350 nM
  TGI: 6.03 µM
T-47D breast
  GI50: 11.5 µM
  TGI: 26.3 µM
CCRF-CEM leukemia
  GI50: 15.3 µM
  TGI: 28.6 µM
HCC-2998 colon
  GI50: 17.3 µM
  TGI: 32.1 µM
UACC-257 melanoma
  GI50: 14.4 µM
  TGI: 27.6 µM
